Measured values from US10633407B2, “14-membered ketolides and methods of their preparation and use” (President and Fellows of Harvard College, priority 2014, dated 2020).
Read-outs that look alike come from different tables or passages of the source.

Key:
Assay in all cases: CLSI broth dilution MIC determination
Type in all cases: cell-based
K. pneumoniae SHV-12 = test system: K. pneumoniae SHV-12
[1] = test system: H. influenzae Erythro >4, Azithro 1
Excerpt: MIC data was collected for the novel macrolides that this platform has produced against over 21 unique strains of B. subtilis, E. coli, S. aureus, S. pneumoniae, and H. influenzae, including several multidrug-resistant strains, with a special focus on macrolide resistant mechanisms (vide supra). […] CLSI standard procedures for broth dilution MIC determination were used. […] These genotypes can be constitutive or inducible.

S. aureus erm A genotype = test system: S. aureus erm A genotype
How it was run: (§1)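 Azithromycin and solithromycin were included as macrolide controls in many cases. MICs were determined by CLSI standard broth dilution.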

E. coli NDM-1 = test system: E. coli NDM-1
How it was run: as §1

[2] = test system: S. pneumoniae erm B + mef A genotype
How it was run: as §1

E. coli CTX-M-14 = test system: E. coli CTX-M-14
How it was run: as §1

S. pneumoniae ATCC 49619 = test system: S. pneumoniae ATCC 49619
How it was run: as §1

H. influenzae ATCC49247 = test system: H. influenzae ATCC49247
How it was run: as §1

S. aureus USA600, GISA = test system: S. aureus USA600, GISA
How it was run: as §1

E. coli TEM-1 = test system: E. coli TEM-1
How it was run: as §1

E. coli ATCC 25922 = test system: E. coli ATCC 25922
How it was run: as §1

[3] = test system: S. pneumoniae erm B + tet(M,O) genotype; settings: Streptococcus pneumoniae
How it was run: as §1

S. aureus MRSA: USA100 = test system: S. aureus MRSA: USA100
How it was run: as §1

K. pneumoniae TEM-10 = test system: K. pneumoniae TEM-10
S. aureus MRSA: USA300 = test system: S. aureus MRSA: USA300
How it was run: as §1

[4] = test system: S. pneumoniae mef A genotype (second strain so labelled)
How it was run: as §1

S. aureus ATCC 29213 = test system: S. aureus ATCC 29213
How it was run: as §1

S. pyogenes ATCC 19615 = test system: S. pyogenes ATCC 19615
P. aeruginosa ATCC 27853 = test system: P. aeruginosa ATCC 27853
[5] = test system: P. aeruginosa HPA101-1477
K. pneumoniae ATCC 10031 = test system: K. pneumoniae ATCC 10031
A. baumannii ATCC 19606 = test system: A. baumannii ATCC 19606
K. pneumoniae KPC-2 = test system: K. pneumoniae KPC-2
[6] = test system: A. baumannii chromosomal class C
[7] = test system: E. faecalis Vancomycin-resistant
[8] = test system: A. baumannii imipenem-resistant
[9] = test system: S. pyogenes Macrolide-resistant
E. faecalis ATCC 29212 = test system: E. faecalis ATCC 29212
A. baumannii IMP-4 = test system: A. baumannii IMP-4
[10] = test system: K. pneumoniae MP-546 Clinical-MDR; settings: Klebsiella pneumoniae, read-out: MIC
[11] = Klebsiella pneumoniae, SHV12, read-out: MIC
[12] = H. influenzae Erythro >4, Azithro 1, Gram-negative
[13] = Haemophilus influenzae, read-out: MIC
[14] = S. aureus erm A genotype, Gram-positive
[15] = Staphylococcus aureus, S. aureus erm A genotype (MP-620 UNT-146), read-out: MIC
[16] = Escherichia coli, NDM1, read-out: MIC
[17] = Escherichia coli, CTXM14, read-out: MIC
[18] = S. pneumoniae ATCC 49619, Gram-positive
[19] = S. aureus USA600, GISA, Gram-positive
[20] = Staphylococcus aureus, S. aureus USA600, GISA (MP-619 UNT-120), read-out: MIC
[21] = E. coli ATCC 25922, Gram-negative
[22] = Escherichia coli, ATCC25922, E. coli ATCC 25922 (MP-4), read-out: MIC
[23] = S. aureus MRSA: USA100, Gram-positive
[24] = Staphylococcus aureus, S. aureus MRSA: USA100 (MP-618 UNT-096), read-out: MIC
[25] = Klebsiella pneumoniae, TEM10, read-out: MIC
[26] = S. aureus MRSA: USA300, Gram-positive
[27] = Staphylococcus aureus, S. aureus MRSA: USA300 (MP-549, msr(a)), read-out: MIC
[28] = Streptococcus pneumoniae, second strain (MP-627 UNT-039), read-out: MIC
[29] = S. aureus ATCC 29213, Gram-positive
[30] = S. pyogenes ATCC 19615, Gram-positive
[31] = P. aeruginosa ATCC 27853, Gram-negative
[32] = Pseudomonas aeruginosa, ATCC27853, P. aeruginosa ATCC 27853 (MP-3), read-out: MIC
[33] = Pseudomonas aeruginosa, HPA1011477, read-out: MIC
[34] = K. pneumoniae ATCC 10031, Gram-negative
[35] = Klebsiella pneumoniae, ATCC10031, K. pneumoniae ATCC 10031 (MP-14), read-out: MIC
[36] = A. baumannii ATCC 19606, Gram-negative
[37] = Acinetobacter baumannii, ATCC19606, A. baumannii ATCC 19606 (MP-15), read-out: MIC
[38] = Klebsiella pneumoniae, KPC2, read-out: MIC
[39] = Acinetobacter baumannii, read-out: MIC
[40] = E. faecalis Vancomycin-resistant, Gram-positive
[41] = S. pyogenes Macrolide-resistant, Gram-positive
[42] = E. faecalis ATCC 29212, Gram-positive
[43] = Enterococcus faecalis, ATCC29212, E. faecalis ATCC 29212 (MP-24), read-out: MIC
[44] = Acinetobacter baumannii, IMP4, read-out: MIC

Measured: MIC

CC[C@H]1OC(=O)[C@@](C)(F)C(=O)[C@H](C)[C@@H](O[C@@H]2OC(C)CC(N(C)C)C2O)[C@](C)(OC)C[C@@H](C)C(=O)[C@H](C)[C@H]2N(CC#CCn3cc(-c4cccc(N)c4)nn3)C(=O)O[C@]12C (stereo partly shown) [FSM-100426]
0.0625 mg/L: S. aureus ATCC 29213; [29] | S. aureus ATCC 29213; Staphylococcus aureus, ATCC29213, S. aureus ATCC 29213 (MP-12), read-out: MIC
4 mg/L: [1]; [12] | [1]; [13] | H. influenzae ATCC49247; Gram-negative | H. influenzae ATCC49247; [13]
0.5 mg/L: S. aureus MRSA: USA300; [26] | S. aureus MRSA: USA300; [27]
8 mg/L: K. pneumoniae ATCC 10031; [34] | K. pneumoniae ATCC 10031; [35] | [7]; [40] | [7]; Enterococcus faecalis, E. faecalis Vancomycin-resistant (UNT-039), read-out: MIC | [8]; [39] | [8]; Gram-negative
< 0.0312 mg/L: [2]; Streptococcus pneumoniae | S. pneumoniae ATCC 49619; [18] | S. pneumoniae ATCC 49619; Streptococcus pneumoniae, ATCC49619, S. pneumoniae ATCC 49619 (MP-21), read-out: MIC | [3] | [4]; Gram-positive | [4]; [28] | S. pyogenes ATCC 19615; [30] | S. pyogenes ATCC 19615; Streptococcus pyogenes, ATCC19615, S. pyogenes ATCC 19615 (MP-19), read-out: MIC | [9]; [41] | [9]; Streptococcus pyogenes, S. pyogenes Macrolide-resistant (MP-625 UNT-014), read-out: MIC | E. faecalis ATCC 29212; [42] | E. faecalis ATCC 29212; [43]
16 mg/L: A. baumannii ATCC 19606; [36] | A. baumannii ATCC 19606; [37]
> 32 mg/L: K. pneumoniae SHV-12; Gram-negative | K. pneumoniae SHV-12; [11] | S. aureus erm A genotype; [14] | S. aureus erm A genotype; [15] | E. coli NDM-1; [16] | E. coli NDM-1; Gram-negative | E. coli CTX-M-14; [17] | E. coli CTX-M-14; Gram-negative | E. coli TEM-1; E. coli TEM-1, Gram-negative | E. coli TEM-1; Escherichia coli, TEM1 | S. aureus MRSA: USA100; [23] | S. aureus MRSA: USA100; [24] | K. pneumoniae TEM-10; Gram-negative | K. pneumoniae TEM-10; [25] | P. aeruginosa ATCC 27853; [31] | P. aeruginosa ATCC 27853; [32] | [5]; Gram-negative | [5]; [33] | K. pneumoniae KPC-2; Gram-negative | K. pneumoniae KPC-2; [38] | A. baumannii IMP-4; [44] | A. baumannii IMP-4; Gram-negative
32 mg/L: S. aureus USA600, GISA; [19] | S. aureus USA600, GISA; [20] | E. coli ATCC 25922; [21] | E. coli ATCC 25922; [22] | [6]; [39] | [6]; Gram-negative

CC[C@H]1OC(=O)[C@@](C)(F)C(=O)[C@H](C)[C@@H](OC2OC(C)CC(N(C)C)C2O)[C@](C)(OC)C[C@@H](C)C(=O)[C@H](C)[C@H]2N(CCCCn3cc(-c4cccc(N)c4)nn3)C(=O)O[C@]12C (stereo partly shown) [Solithro, solithromycin, reference compound]
0.125 mg/L: S. aureus MRSA: USA300; Staphylococcus aureus, S. aureus MRSA: USA300 (MP-549, msr(a)) | [4]; Gram-positive | [4]; Streptococcus pneumoniae, second strain (MP-627 UNT-039) | S. aureus ATCC 29213; [29] | S. aureus ATCC 29213; Staphylococcus aureus, ATCC29213
4 mg/L: H. influenzae ATCC49247; Gram-negative | H. influenzae ATCC49247; [13] | K. pneumoniae ATCC 10031; K. pneumoniae ATCC 10031 (MP-14) | [8]; [39] | [8]; Gram-negative
2 mg/L: [1]; [12] | [1]; [13]
1 mg/L: S. aureus MRSA: USA300; [26] | S. aureus MRSA: USA300; [27]
0.0625 mg/L: [9]; [41]
16 mg/L: E. coli ATCC 25922; E. coli ATCC 25922 (MP-4)
0.03 mg/L: E. faecalis ATCC 29212; E. faecalis ATCC 29212 (MP-24)
< 0.015 mg/L: [4]; [28]
8 mg/L: K. pneumoniae ATCC 10031; [34] | K. pneumoniae ATCC 10031; [35] | A. baumannii ATCC 19606; [36] | A. baumannii ATCC 19606; [37] | [6]; [39] | [6]; Gram-negative
0.25 mg/L: [2]; S. pneumoniae erm B + mef A genotype, Gram-positive | [2]; Streptococcus pneumoniae
< 0.0312 mg/L: S. pneumoniae ATCC 49619; [18] | [3] | S. pyogenes ATCC 19615; [30] | E. faecalis ATCC 29212; [42] | E. faecalis ATCC 29212; [43]
32 mg/L: E. coli TEM-1; E. coli TEM-1, Gram-negative | E. coli TEM-1; Escherichia coli, TEM1 | E. coli ATCC 25922; [21] | E. coli ATCC 25922; [22] | [7]; [40]
> 32 mg/L: K. pneumoniae SHV-12; Gram-negative | K. pneumoniae SHV-12; [11] | S. aureus erm A genotype; [14] | S. aureus erm A genotype; [15] | E. coli NDM-1; [16] | E. coli NDM-1; Gram-negative | E. coli CTX-M-14; [17] | E. coli CTX-M-14; Gram-negative | S. aureus USA600, GISA; [19] | S. aureus USA600, GISA; [20] | S. aureus MRSA: USA100; [23] | S. aureus MRSA: USA100; [24] | K. pneumoniae TEM-10; Gram-negative | K. pneumoniae TEM-10; [25] | P. aeruginosa ATCC 27853; [31] | P. aeruginosa ATCC 27853; [32] | [5]; Gram-negative | [5]; [33] | K. pneumoniae KPC-2; Gram-negative | K. pneumoniae KPC-2; [38] | [10] | A. baumannii IMP-4; [44] | A. baumannii IMP-4; Gram-negative
